Measured values published in US11872219B2 (priority 2018, dated 2024).

What was measured:
[1] = system: rats (monosodium-iodoacetate model of osteoarthritis); test: monosodium-iodoacetate model of osteoarthritis: lameness (dynamic weight bearing); details: for lameness (% RL-% RR), early and late phase: intrathecal, 1 hr post-drug, vs intrathecal saline
[2] = system: rats (acute thermal nociception); test: tail flick assay, intrathecal administration; type: in vivo, rat; details: intrathecal 0.1, 1 or 10 μg on successive days, 1 hr post-drug, vs baseline and saline
Protocol: As a general matter, rats underwent implantation of a catheter for drug delivery into the lumbo-thoracic intrathecal space. A polyurethane catheter was inserted through an incision in the atlanto-occipital membrane and passed caudally to the lumbar level. The distal part of the catheter was exteriorized and connected to a Pinport access port (Instech). Each rat received a standard protocol of anesthesia and antibiotics. Patency checks of the catheter system were performed once weekly following surgeries using 0.02 mL of physiological saline continuing until completion of the dosing period. The Pinport was wiped with alcohol prior to any injection. A minimum of 9-10 days was allowed between surgery and the first dosing in order for the rats to recover fully from surgical trauma. Intrathecal injection of test items always involved the following procedure: test items were administered by slow bolus injection via the Pinport connected to the intrathecal catheter. The dose volume for each animal was fixed at 10 μL and injected slowly over duration of ˜5 minutes. Following dose administration, the catheter was flushed with 20 μL of physiological saline.
A Tail-Flick Analgesia Meter (Columbus Instruments) was used. […] Afterwards, baseline tail-flick latency was measured using a lamp intensity adjusted such that the baseline tail-flick latencies were in the 6-8 second range. […]

[3] = systemically administered, Hirao et al. 2008, cited from earlier work
[4] = system: rats (monosodium-iodoacetate model of osteoarthritis); test: monosodium-iodoacetate model of osteoarthritis: locomotor activity (total distance travelled)
[5] = molecular target: human delta receptor (Homo sapiens, UniProt P41143); details: Ferrari et al. 2017; cited from earlier work
Sequence of human delta receptor (P41143 whole entry): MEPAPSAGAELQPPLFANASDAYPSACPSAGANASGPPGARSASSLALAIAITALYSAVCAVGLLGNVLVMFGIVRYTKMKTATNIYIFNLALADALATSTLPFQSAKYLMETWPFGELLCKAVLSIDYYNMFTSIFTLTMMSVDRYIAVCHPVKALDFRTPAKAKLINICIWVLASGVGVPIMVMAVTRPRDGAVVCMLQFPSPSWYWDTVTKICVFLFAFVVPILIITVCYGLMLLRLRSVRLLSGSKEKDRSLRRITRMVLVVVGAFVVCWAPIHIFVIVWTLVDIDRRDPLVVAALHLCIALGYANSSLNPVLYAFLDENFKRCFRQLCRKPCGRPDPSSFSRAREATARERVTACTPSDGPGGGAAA

SMILES	lameness, last two days of the late phase ([1]; intrathecal 15 μg, vs saline)	lameness (% RL-% RR), early and late phase [1]	tail-flick latency [2]	anxiolytic effects [3]	inhibition of memory or motor function [3]	sedative side effects ([3]; appear only at much higher doses than the effective anxiolytic dose range)	locomotor activity (total distance travelled), early phase ([4]; intrathecal 1 μg, vs intrathecal vehicle)	locomotor activity (total distance travelled), late phase ([4]; intrathecal 0.1, 1 or 10 μg, 0.1 and 10 μg reached statistical significance vs vehicle)	activation of the human delta receptor [5]	lameness, early phase ([1]; intrathecal 1 μg, Days 2-4, vs saline)	lameness, late phase, dose-response ([1]; intrathecal 0.1, 1 or 10 μg, Days 22-24)	lameness, late phase, 1 and 10 μg ([1]; intrathecal 1 and 10 μg, Days 22-24, vs saline)
CN1CC[C@]23c4c5ccc(O)c4O[C@H]2[C@@H](O)C=C[C@H]3[C@H]1C5.O=S(=O)(O)O [morphine sulfate, reference compound]	statistical significance was not quite achieved	significantly reduced lameness levels										
CC1(N2CCC(n3c([C@@H]4CCCNC4)nc4ccccc43)CC2)CCCCCCC1 [MCOPPB, 1-[1-(1-methylcyclooctyl)-4-piperidinyl]-2-[(3R)-3-piperidinyl]-1H-benzimidazole]		significantly reduced lameness levels	significantly, and dose-dependently, increased TF latencies	potent anxiolytic effects	no inhibition of memory or motor function	only slight sedative side effects	did not change locomotor activity	appeared to restore locomotor activity to the level displayed by both treatment groups during the early phase	only a small amount	sufficient to reduce lameness significantly	dose-related effects	significantly reduced lameness
